What is called EC50 is the midpoint of the concentration-response curve. As a reminder, the Ki is a dissociation constant, usually derived from enzyme kinetics or from competition with a known ligand.

Molecules are shown by their SMILES.

From patent US20240391930A1, “SPIROCYCLIC BICYCLIC MODULATORS OF CHOLESTEROL BIOSYNTHESIS AND THEIR USE FOR PROMOTING REMYELINATION” (GENENTECH, INC., priority 2021, published 2024) come the findings set out here.

The subject of assay [1] is EpiSC-derived OPCs. The assay can be described thus: In vitro phenotypic screening of OPCs (MBP high-content imaging). Particulars: Mus musculus, 72 h; percentage of MBP-positive oligodendrocytes, 3 days, 0.5 nM to 1000 nM; read-out: OPC EC50. Format: cell-based. The protocol:
To assess effects of treatments on OPCs, all treatments were assayed in two or more independent platings of epiblast stem cell-derived OPCs (EpiSC). EpiSC-derived OPCs were obtained using in vitro differentiation protocols and culture conditions described previously (Najm et al, 2011, Nature Methods). OPCs were expanded and frozen down in aliquots. OPCs were thawed into growth conditions for at least one passage before use in further assays.
EpiSC-derived OPCs were grown and expanded in poly-L-ornithine (PO) and laminin-coated flasks in N2B27 media (DMEM/F12 (Gibco), N2-MAX (R&D Systems), B-27 (ThermoFisher), and GlutaMax (Gibco)) supplemented with FGF2 ([…], R&D systems, 233-FB-025) and PDGF-AA ([…], R&D systems, 233-AA-050) before harvesting for experiments. The cells were seeded onto poly-L-ornithine or poly-D-lysine coated CellCarrier Ultra plates (PerkinElmer) coated with laminin (Sigma, L2020) at a density of 150,000/cm^2 in N2B27 media without growth factors. For dose-response testing, a 1000× compound stock in dimethyl sulphoxide (DMSO) was added to assay plates, resulting in 8-point dose curves with final concentrations between 1000 nM and 0.5 nM. Positive controls and DMSO vehicle controls were included in each assay plate. Cells were incubated under standard conditions (37° C., 5% CO2) for 3 days and fixed with 4% paraformaldehyde (PFA) in phosphate buffered saline (PBS) for 20 min. Fixed plates were washed with PBS, permeabilized with 0.1% Triton X-100, and blocked with 10% donkey serum (v/v) in PBS for 40 min. Then, cells were labelled with MBP antibodies (Abcam, ab7349; 1:200) for 2 h at room temperature, washed with PBS, and stained with Alexa Fluor conjugated secondary antibodies (1:500) for 45 min. Nuclei were visualized by DAPI staining (Sigma; 1 μg/ml), followed by further PBS washes.
Cells and cell culture plates were imaged on the Operetta High Content Imaging and Analysis system (PerkinElmer). Analysis (PerkinElmer Harmony and Columbus software) began by identifying intact nuclei stained by DAPI. The peri-nuclear region of each cell was then cross-referenced with the […] (MBP) stain to identify oligodendrocyte nuclei, and from this the percentage of oligodendrocytes was calculated.

For assay [2], the system named is zymostenol accumulation in EpiSC-derived OPCs (EBP). The assay can be described thus: GC/MS-based sterol profiling (zymostenol accumulation). Format: cell-based. Particulars: Mus musculus, 24 hours, 8 doses from 0.15 nM to 333 nM, read-out: Zymostenol GCMS EC50. A digest of the protocol: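 Zymostenol level is expressed relative to that after 24 h with 100 nM positive-control reference, measured by full-scan GC/MS (m/z 458) with cholesterol-d7 internal standard after BSTFA derivatisation. Cells were EpiSC-derived OPCs, 100,000/well in N2B27 without growth factors, treated 24 h, from two or more independent platings.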

For assay [3], the target named is T1, human emopamil binding protein and human 7-dehydrocholesterol reductase (hEBP-DHCR7) (Homo sapiens, UniProt Q15125).
T1 construct: expressed in transfected cells; host or cells: HEK 293 cells, transient transfection with 2 DNA constructs
T1 sequence (Q15125 whole entry): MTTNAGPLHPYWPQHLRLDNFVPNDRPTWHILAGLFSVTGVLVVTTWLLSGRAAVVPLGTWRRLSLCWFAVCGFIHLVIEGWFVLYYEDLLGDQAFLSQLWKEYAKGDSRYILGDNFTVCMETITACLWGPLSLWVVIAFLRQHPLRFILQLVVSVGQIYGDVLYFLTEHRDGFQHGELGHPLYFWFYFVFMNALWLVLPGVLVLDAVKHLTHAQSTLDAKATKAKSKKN
The assay can be described thus: hEBP-DHCR7 radioligand filtration binding assay. As to conditions: membranes of HEK293 co-expressing hEBP and DHCR7; [3H] 2-thia-6-azaspiro[3.4]octane radioligand; 8 doses 0.06 to 5000 nM. In outline:
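Membranes from HEK293 cells transiently co-expressing human EBP and DHCR7 (10 μg/well) incubated 3 h at 22 °C with tritiated 2-thia-6-azaspiro[3.4]octane dioxide radioligand (25 nM stock addition) and compound at 0.06–5000 nM final. Bound ligand collected on PEI-treated GF/B filters, scintillation-counted. IC50 by Hill fit; reported as Ki.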

For the compound `CC(C)n1nc([C@H]2CC[C@](O)(C(F)(F)F)CC2)cc1[C@H]1[C@@H]2C[C@@H](N3CCC4(C3)CS(=O)(=O)C4)C[C@@H]21` (single isomer, unassigned) [Compound 104*], the 50% effective concentration (EC50) came to 175 nM in assay [1] and 25.8 nM in assay [2]. In assay [3], this compound displayed a Ki of 164 nM.

Take `CC(C)n1nc([C@H]2CC[C@H](C(F)(F)F)CC2)cc1[C@H]1[C@@H]2C[C@@H](N3CCC4(C3)CS(=O)(=O)C4)C[C@@H]21` (single isomer, unassigned) [Compound 107]: the concentration for a half-maximal effect (EC50) is 52.5 nM in assay [1] and 7.59 nM in assay [2]. Also, in assay [3], the affinity corresponds to a Ki of 16 nM.

With `CCn1nc(-c2ccnc(C(F)(F)F)c2)cc1[C@H]1[C@@H]2C[C@@H](N3CCC4(C3)CS(=O)(=O)C4)C[C@@H]21` [Compound 26, 6-((1R,3s,5S,6r)-6-(1-ethyl-3-(2-(trifluoromethyl)pyridin-4-yl)-1H-pyrazol-5-yl)bicyclo[3.1.0]hexan-3-yl)-2-thia-6-azaspiro[3.4]octane 2,2-dioxide], the concentration giving a half-maximal response (EC50) is 6.5 nM in assay [1] and 4.4 nM in assay [2]. Further, in assay [3], affinity was put at a Ki of 19.8 nM.

On to `CCn1nc(-c2ccnc(C(F)(F)F)c2)cc1[C@H]1[C@@H]2C[C@H](N3CCC4(C3)CS(=O)(=O)C4)C[C@@H]21` [Compound 27, 6-((1R,3r,5S,6r)-6-(1-ethyl-3-(2-(trifluoromethyl)pyridin-4-yl)-1H-pyrazol-5-yl)bicyclo[3.1.0]hexan-3-yl)-2-thia-6-azaspiro[3.4]octane 2,2-dioxide], for which the EC50 in assay [1] worked out at 1.6 nM; in assay [2], 2.3 nM. Further, the inhibition constant Ki in assay [3] amounted to 11.6 nM.

For the compound `CC(C)n1nc(-c2cccc(C(F)(F)F)c2)nc1[C@H]1[C@@H]2C[C@@H](N3CCC4(C3)CS(=O)(=O)C4)C[C@@H]21` [Compound 51, 6-((1R,3s,5S,6r)-6-(1-Isopropyl-3-(3-(trifluoromethyl)phenyl)-1H-1,2,4-triazol-5-yl)bicyclo[3.1.0]hexan-3-yl)-2-thia-6-azaspiro[3.4]octane 2,2-dioxide], the EC50 in assay [1] turned out to be 37 nM; in assay [2], 6.4 nM. Moreover, affinity in assay [3] was put at a Ki of 11.7 nM.

On to `CCn1nc(-c2ccccn2)cc1[C@H]1[C@@H]2C[C@H](N3CCC4(C3)CS(=O)(=O)C4)C[C@@H]21` [Compound 73, 6-((1R,3r,5S,6r)-6-(1-ethyl-3-(pyridin-2-yl)-1H-pyrazol-5-yl)bicyclo[3.1.0]hexan-3-yl)-2-thia-6-azaspiro[3.4]octane 2,2-dioxide], for which the concentration giving a half-maximal response (EC50) is 92 nM in assay [1] and 32 nM in assay [2]. Also, the Ki in assay [3] worked out at 59.1 nM.

As for `CC(C)n1nc(C2CCC(F)(F)CC2)cc1[C@H]1[C@@H]2C[C@@H](N3CCC4(C3)CS(=O)(=O)C4)C[C@@H]21` [Compound 108, 6-((1R,3s,5S,6r)-6-(3-(4,4-Difluorocyclohexyl)-1-isopropyl-1H-pyrazol-5-yl)bicyclo[3.1.0]hexan-3-yl)-2-thia-6-azaspiro[3.4]octane 2,2-dioxide], the EC50 worked out at 102 nM in assay [1] and 10.6 nM in assay [2]. This compound also yielded an inhibition constant (Ki) in assay [3] of 21.6 nM.
